Ends that are not written are not given here. Peptide text beside a SMILES is read from it. * marks the point of attachment. Biotin = O=C1N[C@H]2[C@H](CS[C@H]2CCCCC(=O)*)N1

Holding throughout (assay): G' assay (10 uM PL peptide), results of TABLE 7 and TABLE 12
Common to all, as to type: binding

The target in assay [1] is T1, PDZ protein (GST-PDZ fusion) (Homo sapiens, UniProt Q9HD26).
T1 construct: made in house; host or cells: E. coli (DH5alpha, BL21 or JM109)
Particulars: PDZ PIST, PDZ Domain 1. In a few lines:
(§1)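 Binding classes derive from A450 nm of bound biotin-tagged PL peptide. A score of 5 needs A450 above 4 in more than two repeats.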

For assay [2], the target named is T2, PDZ protein (GST-PDZ fusion) (Homo sapiens, UniProt Q14CM0).
T2 construct: made in house; host or cells: E. coli (DH5alpha, BL21 or JM109)
T2 sequence (Q14CM0 1-1322): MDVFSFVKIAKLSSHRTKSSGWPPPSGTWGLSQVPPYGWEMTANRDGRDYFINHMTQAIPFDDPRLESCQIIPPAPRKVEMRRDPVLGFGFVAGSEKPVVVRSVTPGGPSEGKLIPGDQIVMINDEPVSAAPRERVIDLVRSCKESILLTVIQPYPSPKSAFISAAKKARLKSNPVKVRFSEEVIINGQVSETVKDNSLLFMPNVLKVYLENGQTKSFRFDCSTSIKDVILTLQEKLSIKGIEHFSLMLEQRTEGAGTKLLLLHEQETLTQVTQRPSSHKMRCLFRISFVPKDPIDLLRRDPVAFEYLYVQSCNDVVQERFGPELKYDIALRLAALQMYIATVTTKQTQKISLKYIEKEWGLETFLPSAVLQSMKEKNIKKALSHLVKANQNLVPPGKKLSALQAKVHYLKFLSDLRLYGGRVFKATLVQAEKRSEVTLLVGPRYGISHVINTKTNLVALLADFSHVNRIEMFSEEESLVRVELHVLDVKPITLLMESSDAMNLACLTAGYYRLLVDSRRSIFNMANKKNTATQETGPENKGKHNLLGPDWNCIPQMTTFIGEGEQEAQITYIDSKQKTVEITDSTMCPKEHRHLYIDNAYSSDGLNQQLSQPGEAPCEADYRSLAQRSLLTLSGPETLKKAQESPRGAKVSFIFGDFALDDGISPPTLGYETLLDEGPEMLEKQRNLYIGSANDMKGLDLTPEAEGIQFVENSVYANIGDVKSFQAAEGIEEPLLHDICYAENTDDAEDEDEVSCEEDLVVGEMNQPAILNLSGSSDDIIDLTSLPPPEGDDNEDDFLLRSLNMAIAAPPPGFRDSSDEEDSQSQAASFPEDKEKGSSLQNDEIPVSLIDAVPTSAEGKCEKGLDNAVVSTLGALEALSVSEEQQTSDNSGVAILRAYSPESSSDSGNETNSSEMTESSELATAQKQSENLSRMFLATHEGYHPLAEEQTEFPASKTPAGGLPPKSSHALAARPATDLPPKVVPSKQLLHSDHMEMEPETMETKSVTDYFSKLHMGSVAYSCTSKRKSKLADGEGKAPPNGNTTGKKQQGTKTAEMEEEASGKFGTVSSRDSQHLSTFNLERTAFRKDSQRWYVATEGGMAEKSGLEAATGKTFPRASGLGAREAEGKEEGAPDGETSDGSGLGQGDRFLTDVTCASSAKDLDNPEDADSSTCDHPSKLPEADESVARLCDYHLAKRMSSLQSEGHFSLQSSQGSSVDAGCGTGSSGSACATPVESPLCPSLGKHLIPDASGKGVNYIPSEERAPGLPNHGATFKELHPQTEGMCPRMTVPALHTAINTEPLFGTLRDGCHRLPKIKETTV
Particulars: PDZ KIAA0316, PDZ Domain 1. A digest of the protocol:
as §1

The target in assay [3] is T3, PDZ protein (GST-PDZ fusion) (Homo sapiens, UniProt O14745).
T3 construct: made in house; host or cells: E. coli (DH5alpha, BL21 or JM109)
T3 sequence (O14745 1-358): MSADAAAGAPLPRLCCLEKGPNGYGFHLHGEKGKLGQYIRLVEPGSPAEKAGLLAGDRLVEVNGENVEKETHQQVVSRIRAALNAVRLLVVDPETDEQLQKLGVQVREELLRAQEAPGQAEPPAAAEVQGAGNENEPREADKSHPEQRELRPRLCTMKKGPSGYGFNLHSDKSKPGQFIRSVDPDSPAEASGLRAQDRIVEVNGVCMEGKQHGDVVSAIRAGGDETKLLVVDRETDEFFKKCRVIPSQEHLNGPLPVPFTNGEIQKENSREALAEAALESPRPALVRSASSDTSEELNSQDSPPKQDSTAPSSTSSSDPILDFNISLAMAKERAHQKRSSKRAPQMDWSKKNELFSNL
A digest of the protocol: as §1

Assay [4] has as its target T4, PDZ protein (GST-PDZ fusion) (Homo sapiens, UniProt Q8TEW0).
T4 construct: made in house; host or cells: E. coli (DH5alpha, BL21 or JM109)
Particulars: PDZ PAR3, PDZ Domain 3. In a few lines:
as §1

The target in assay [5] is T5, PDZ protein (GST-PDZ fusion) (Homo sapiens, UniProt Q96RT1).
T5 construct: made in house; host or cells: E. coli (DH5alpha, BL21 or JM109)
As to conditions: PDZ Erbin, PDZ Domain 1. A digest of the protocol: as §1

T5 sequence (Q96RT1 whole entry, the tested form may be a part): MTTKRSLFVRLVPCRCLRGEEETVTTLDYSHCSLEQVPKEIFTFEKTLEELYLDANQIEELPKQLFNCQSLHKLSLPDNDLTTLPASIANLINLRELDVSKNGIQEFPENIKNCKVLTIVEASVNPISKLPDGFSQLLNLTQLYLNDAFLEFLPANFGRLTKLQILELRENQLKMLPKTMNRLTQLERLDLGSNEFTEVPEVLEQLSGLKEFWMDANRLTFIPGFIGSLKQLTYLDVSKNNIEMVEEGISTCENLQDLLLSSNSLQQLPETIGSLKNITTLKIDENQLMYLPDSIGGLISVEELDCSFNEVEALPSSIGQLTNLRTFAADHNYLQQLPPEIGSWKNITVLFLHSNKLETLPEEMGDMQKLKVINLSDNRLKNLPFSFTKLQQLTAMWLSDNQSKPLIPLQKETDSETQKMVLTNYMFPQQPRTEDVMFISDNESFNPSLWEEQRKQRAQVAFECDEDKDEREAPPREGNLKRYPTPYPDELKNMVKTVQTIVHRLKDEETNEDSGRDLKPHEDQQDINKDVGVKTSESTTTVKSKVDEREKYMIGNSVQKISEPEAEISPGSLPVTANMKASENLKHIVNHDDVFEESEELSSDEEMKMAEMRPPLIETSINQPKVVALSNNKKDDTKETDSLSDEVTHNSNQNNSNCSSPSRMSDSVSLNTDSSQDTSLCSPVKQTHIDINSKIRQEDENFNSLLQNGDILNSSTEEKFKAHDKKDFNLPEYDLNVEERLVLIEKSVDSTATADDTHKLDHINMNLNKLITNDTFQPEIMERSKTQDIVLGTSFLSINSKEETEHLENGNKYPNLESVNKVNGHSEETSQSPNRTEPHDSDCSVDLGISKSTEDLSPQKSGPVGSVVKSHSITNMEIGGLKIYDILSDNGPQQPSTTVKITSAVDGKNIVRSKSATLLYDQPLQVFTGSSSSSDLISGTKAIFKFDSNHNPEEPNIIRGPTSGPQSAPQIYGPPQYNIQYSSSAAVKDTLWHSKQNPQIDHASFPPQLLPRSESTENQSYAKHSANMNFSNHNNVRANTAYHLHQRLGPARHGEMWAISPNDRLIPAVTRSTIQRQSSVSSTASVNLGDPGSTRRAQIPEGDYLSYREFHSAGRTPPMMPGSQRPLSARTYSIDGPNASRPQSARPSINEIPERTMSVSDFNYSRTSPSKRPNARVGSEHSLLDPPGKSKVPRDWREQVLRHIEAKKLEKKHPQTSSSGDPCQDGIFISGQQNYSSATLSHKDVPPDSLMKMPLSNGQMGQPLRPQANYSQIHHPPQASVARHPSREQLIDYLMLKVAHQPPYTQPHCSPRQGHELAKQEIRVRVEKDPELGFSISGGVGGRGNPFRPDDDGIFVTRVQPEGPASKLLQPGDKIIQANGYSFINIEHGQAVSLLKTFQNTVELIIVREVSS
T4 sequence (Q8TEW0 whole entry, the tested form may be a part): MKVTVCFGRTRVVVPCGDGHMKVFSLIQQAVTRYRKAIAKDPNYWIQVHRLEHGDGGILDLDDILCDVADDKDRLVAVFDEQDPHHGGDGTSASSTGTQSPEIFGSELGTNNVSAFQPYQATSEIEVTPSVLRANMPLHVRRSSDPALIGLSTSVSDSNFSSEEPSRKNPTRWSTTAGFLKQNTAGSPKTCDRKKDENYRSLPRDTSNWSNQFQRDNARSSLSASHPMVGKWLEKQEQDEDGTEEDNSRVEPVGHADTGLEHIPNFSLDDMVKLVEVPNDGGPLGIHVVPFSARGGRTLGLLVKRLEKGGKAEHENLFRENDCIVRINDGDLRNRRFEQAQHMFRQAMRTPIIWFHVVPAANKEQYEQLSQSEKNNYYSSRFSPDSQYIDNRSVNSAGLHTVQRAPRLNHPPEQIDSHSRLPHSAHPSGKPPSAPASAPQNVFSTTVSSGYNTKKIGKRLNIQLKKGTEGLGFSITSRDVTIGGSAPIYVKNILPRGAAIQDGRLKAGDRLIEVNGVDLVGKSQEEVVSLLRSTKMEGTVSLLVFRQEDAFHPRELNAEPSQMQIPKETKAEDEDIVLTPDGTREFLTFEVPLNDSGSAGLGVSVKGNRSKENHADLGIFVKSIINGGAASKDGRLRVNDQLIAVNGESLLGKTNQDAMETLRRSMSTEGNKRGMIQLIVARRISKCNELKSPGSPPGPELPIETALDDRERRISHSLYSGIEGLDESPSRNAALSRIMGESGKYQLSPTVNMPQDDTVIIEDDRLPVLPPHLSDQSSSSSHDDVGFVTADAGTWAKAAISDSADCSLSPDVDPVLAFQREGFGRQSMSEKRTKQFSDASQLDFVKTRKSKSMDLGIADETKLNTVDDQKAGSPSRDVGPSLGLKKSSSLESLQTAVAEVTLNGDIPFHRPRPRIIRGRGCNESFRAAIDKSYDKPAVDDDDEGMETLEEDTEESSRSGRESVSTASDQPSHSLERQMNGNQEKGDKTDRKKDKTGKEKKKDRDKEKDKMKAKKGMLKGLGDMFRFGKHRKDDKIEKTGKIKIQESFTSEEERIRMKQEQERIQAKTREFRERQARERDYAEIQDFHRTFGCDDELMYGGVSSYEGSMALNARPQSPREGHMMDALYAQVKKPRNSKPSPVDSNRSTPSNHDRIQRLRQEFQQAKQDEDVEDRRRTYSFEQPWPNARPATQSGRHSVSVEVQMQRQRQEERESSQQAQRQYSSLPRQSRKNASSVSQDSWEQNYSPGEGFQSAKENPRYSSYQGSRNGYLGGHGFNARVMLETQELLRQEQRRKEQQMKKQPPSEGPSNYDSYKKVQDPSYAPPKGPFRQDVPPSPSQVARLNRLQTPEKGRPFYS

Turning to `CC(C)C[C@H](NC(=O)[C@H](C)NC(=O)[C@@H](NC(=O)[C@@H](NC(=O)[C@H](Cc1c[nH]cn1)NC(=O)[C@H](CC(C)C)NC(=O)CNC(=O)[C@H](CCC(N)=O)NC(=O)CNC(=O)CNC(=O)[C@H](C)NC(=O)[C@H](C)NC(=O)[C@H](CCCNC(=N)N)NC(=O)[C@H](C)NC(=O)[C@H](CO)NC(=O)[C@H](CC(=O)O)NC(=O)[C@H](CC(=O)O)NC(=O)[C@H](Cc1c[nH]c2ccccc12)NC(=O)[C@H](C)NC(=O)CCCC[C@@H]1SC[C@@H]2NC(=O)N[C@@H]21)C(C)C)[C@@H](C)O)C(=O)O` [LPAP] (Biotin-AWDDSARAAGGQGLHVTAL-OH; C-terminus assumed), the Classification in assay [1] is listed as 1 (A450 nm 0-1); in assay [2], 1 (A450 nm 0-1); in assay [3] (PDZ EBP50, PDZ Domain 1) it was 5 (A450 nm of 4 more than 2× repeated); in assay [3] (PDZ EBP50, PDZ Domain 2) it was 4 (A450 nm 3-4).
As for `CC[C@H](C)[C@H](NC(=O)[C@H](CO)NC(=O)[C@H](CCC(=O)O)NC(=O)[C@H](Cc1ccc(O)cc1)NC(=O)[C@H](CC(=O)O)NC(=O)[C@H](CC(N)=O)NC(=O)[C@H](CCC(=O)O)NC(=O)[C@H](CCCCN)NC(=O)CCCC[C@@H]1SC[C@@H]2NC(=O)N[C@@H]21)C(=O)N[C@@H](CO)C(=O)N[C@@H](CC(=O)O)C(=O)N[C@@H](CC(C)C)C(=O)N[C@@H](CCC(N)=O)C(=O)N[C@@H](CCC(N)=O)C(=O)NCC(=O)N[C@@H](CCCNC(=N)N)C(=O)N[C@@H](CC(=O)O)C(=O)N[C@H](C(=O)N[C@H](C(=O)N[C@@H](CCCNC(=N)N)C(=O)N[C@@H](CC(C)C)C(=O)O)[C@@H](C)O)[C@@H](C)CC` [PAG] (Biotin-KENDYESISDLQQGRDITRL-OH; C-terminus assumed), the Classification in assay [1] and in assay [2] was 1 (A450 nm 0-1) throughout.
Take `CC(C)C[C@H](NC(=O)[C@H](CC(=O)O)NC(=O)[C@H](CO)NC(=O)[C@H](CCC(=O)O)NC(=O)CNC(=O)[C@H](Cc1ccc(O)cc1)NC(=O)[C@H](CC(C)C)NC(=O)[C@H](C)NC(=O)[C@H](CO)NC(=O)[C@H](CO)NC(=O)[C@H](Cc1ccccc1)NC(=O)[C@H](C)NC(=O)[C@H](C)NC(=O)[C@H](Cc1ccc(O)cc1)NC(=O)[C@H](CC(=O)O)NC(=O)[C@H](CC(C)C)NC(=O)[C@H](C)NC(=O)CNC(=O)[C@@H]1CCCN1C(=O)[C@@H](NC(=O)CCCC[C@@H]1SC[C@@H]2NC(=O)N[C@@H]21)C(C)C)C(=O)O` [a-actinin 2] (Biotin-VPGALDYAAFSSALYGESDL-OH; C-terminus assumed): the Classification in assay [2], in assay [4] and in assay [5] was 1 (A450 nm 0-1) in each case.
Regarding `CSCC[C@H](NC(=O)[C@H](C)NC(=O)[C@H](CCCNC(=N)N)NC(=O)CNC(=O)[C@@H](NC(=O)[C@H](Cc1c[nH]c2ccccc12)NC(=O)[C@H](CCCNC(=N)N)NC(=O)CNC(=O)CCCC[C@@H]1SC[C@@H]2NC(=O)N[C@@H]21)[C@@H](C)O)C(=O)N[C@@H](CO)C(=O)N[C@@H](C)C(=O)N[C@@H](Cc1c[nH]c2ccccc12)C(=O)N[C@@H](CCCCN)C(=O)N1CCC[C@H]1C(=O)N[C@H](C(=O)N[C@@H](CCCNC(=N)N)C(=O)N[C@@H](CCCNC(=N)N)C(=O)N[C@@H](CCC(=O)O)C(=O)N[C@H](C(=O)N[C@@H](CCC(=O)O)C(=O)N[C@H](C(=O)O)C(C)C)[C@@H](C)O)[C@@H](C)O` [HPV E6 #35 (modified)] (Biotin-GRWTGRAMSAWKPTRRETEV-OH; C-terminus assumed), the Classification in assay [1] is 1 (A450 nm 0-1); in assay [5], 2 (A450 nm 1-2).
Regarding “KTMPAATYRLLTGQEQPVYL (Biotin-KTMPAATYRLLTGQEQPVYL) [MINT-3]”, the Classification is 2 (A450 nm 1-2) in assay [2] and 1 (A450 nm 0-1) in assay [4].
In the case of “PYSELNYETSHYPASPDSWV (Biotin-PYSELNYETSHYPASPDSWV) [catenin - delta 2]”, the Classification is listed as 1 (A450 nm 0-1) in assay [4] and 4 (A450 nm 3-4) in assay [5].
For the compound `CC(C)C[C@H](NC(=O)[C@H](C)NC(=O)[C@H](CO)NC(=O)CNC(=O)[C@@H](NC(=O)CCCC[C@@H]1SC[C@@H]2NC(=O)N[C@@H]21)[C@@H](C)O)C(=O)N[C@@H](CCC(N)=O)C(=O)N[C@@H](C)C(=O)N[C@@H](Cc1c[nH]c2ccccc12)C(=O)N[C@@H](CCCNC(=N)N)C(=O)N[C@@H](Cc1c[nH]cn1)C(=O)N[C@H](C(=O)N[C@@H](CO)C(=O)N[C@@H](CCCNC(=N)N)C(=O)N[C@@H](CCC(N)=O)C(=O)N[C@@H](C)C(=O)N[C@H](C(=O)N[C@@H](CCC(=O)O)C(=O)N[C@@H](CO)C(=O)N[C@H](C(=O)N[C@H](C(=O)O)C(C)C)[C@@H](C)O)[C@@H](C)O)[C@@H](C)O` [HPV E6 #66 (modified)] (Biotin-TGSALQAWRHTSRQATESTV-OH; C-terminus assumed), the Classification in assay [5] is on record as 1 (A450 nm 0-1).
On to `CC(C)C[C@H](NC(=O)[C@H](CC(C)C)NC(=O)[C@@H](NC(=O)[C@H](CC(=O)O)NC(=O)CCCC[C@@H]1SC[C@@H]2NC(=O)N[C@@H]21)[C@@H](C)O)C(=O)N[C@@H](CC(C)C)C(=O)N[C@H](C(=O)N[C@@H](CCC(=O)O)C(=O)N[C@@H](CC(N)=O)C(=O)N[C@@H](CCC(=O)O)C(=O)NCC(=O)N[C@@H](CC(=O)O)C(=O)N[C@@H](CCCCN)C(=O)N[C@H](C(=O)N[C@@H](CCC(=O)O)C(=O)N[C@@H](CCC(=O)O)C(=O)N[C@@H](CCC(N)=O)C(=O)N[C@H](C(=O)N[C@@H](CO)C(=O)N[C@@H](Cc1ccc(O)cc1)C(=O)N[C@H](C(=O)O)C(C)C)C(C)C)[C@@H](C)O)[C@@H](C)O` [5H2B_HUMAN] (Biotin-DTLLLTENEGDKTEEQVSYV-OH; C-terminus assumed), for which the Classification in assay [1] and in assay [2] was 1 (A450 nm 0-1) throughout.
For `CC(C)C[C@H](NC(=O)[C@H](C)NC(=O)[C@@H](NC(=O)[C@H](CCC(=O)O)NC(=O)[C@H](CCCNC(=N)N)NC(=O)[C@H](CCCNC(=N)N)NC(=O)CNC(=O)[C@H](CCC(N)=O)NC(=O)[C@H](CC(C)C)NC(=O)[C@H](CCCNC(=N)N)NC(=O)CNC(=O)CNC(=O)[C@H](CCCNC(=N)N)NC(=O)[C@H](C)NC(=O)[C@H](CO)NC(=O)[C@H](CCCNC(=N)N)NC(=O)CNC(=O)CNC(=O)[C@H](C)NC(=O)[C@H](C)NC(=O)CCCC[C@@H]1SC[C@@H]2NC(=O)N[C@@H]21)[C@@H](C)O)C(=O)O` [HPV E6 33 (modified)] (Biotin-AAGGRSARGGRLQGRRETAL-OH; C-terminus assumed), the Classification in assay [2] is reported as 2 (A450 nm 1-2); in assay [3] (PDZ EBP50, PDZ Domain 1), 2 (A450 nm 1-2); in assay [3] (PDZ EBP50, PDZ Domain 2), 2 (A450 nm 1-2).
Consider “ELLQFCRTPNPALKNGQYWV (Biotin-ELLQFCRTPNPALKNGQYWV)”, for which the Classification in assay [4] and in assay [5] was 3 (A450 nm 2-3) each time.

Source of the values: patent publication US20050282743A1, “Molecular interactions in cells” (Arbor Vita Corporation, priority 2001, published 2005).
